From PMC6930573, “Discovery of Selective Butyrylcholinesterase (BChE) Inhibitors through a Combination of Computational Studies and Biological Evaluations” (Molecules, 2019)
“And” between values parts separate entries of the source, which are not always exact repeats. Equal values may be shown once.

Key:
hAChE = system: hAChE; parameters: method as in earlier work; details: Figure 1; ref 22 (1), 23 (2); cited from earlier work
hBChE = details: read-out: IC50 (hBChE); Figure 1; ref 22 (1), 23 (2), 24 (3), 25 (4); cited from earlier work
[1] = target: T1, AChE (from human erythrocytes) (Homo sapiens, UniProt P22303); assay: biochemical; type: biochemical; details: mean ± SEM of three experiments; for AChE IR (inhibition ratio): at 10 μM
T1 construct: AChE (from human erythrocytes, C0663); purchased Sigma-Aldrich C0663; host or cells: human erythrocytes
Protocol: (§1) Modified Ellman’s assay was performed to measure the inhibitory effects of purchased compounds on ChEs using a Thermo Fisher Scientific spectrophotometer. AChE (from human erythrocytes, C0663), BChE (from human serum, B4186), 5,5-dithiobis-(2-nitrobenzoic acid) (DTNB, D218200), acetylthiocholine iodide (ATC, A5751), and butyrylthiocholine iodide (BTC, B3253) were purchased from Sigma-Aldrich (St. Louis, MO, USA).
(§2) For measurement, a cuvette containing 30 μL of phosphate buffer, 10 μL of AChE (2.5 units/mL) or BChE (2.5 units/mL), and 10 μL of the test compound solution was allowed to stand for 5 min before 10 μL of DTNB was added. After the addition of 20 μL of ATC or BTC, the reaction was initiated and the solution was mixed immediately. […] 10 μL of phosphate-buffered solution replaced the enzyme solution were used to determine the blank value. All the measurements were done in triplicate. The inhibition curve was drawn by plotting the percentage enzyme activity (100% for the reference) versus the logarithm of the test compound concentration. The IC50 values were calculated by GraphPad Prism 6 (GraphPad Software, San Diego, CA, USA), and the data were shown as mean ± standard error of mean (SEM).

BChE (from human serum) = target: T2, BChE (from human serum) (Homo sapiens, UniProt P06276); assay: biochemical; type: biochemical; details: for BChE IR (inhibition ratio): at 10 μM; for BChE IR (inhibition ratio) / IC50: mean ± SEM of three experiments
T2 construct: BChE (from human serum, B4186); purchased Sigma-Aldrich B4186; host or cells: human serum
Protocol: as §1, §2

SH-SY5Y cells = assay: MTT cell viability assay; type: cell-based; details: 10 μM and 50 μM, 24 h
Protocol: The human neuroblastoma SH-SY5Y cells (3 × 10^3, DMEM medium supplemented with 10% fetal bovine serum, volume 0.1 mL) were placed in a 96-well flat-bottomed plate, in a humidified atmosphere of 95% air and 5% CO2 at 37 °C and grown to 80% confluence. Before cell treatment, the complete medium was replaced with reduced-serum medium (BI, 01-052-1ACS). Then, cells were treated with various concentrations of compounds for 24 h. MTT reagent (D&B, Q108115) (0.5 mg/mL) was added to the wells and the plates were incubated for 4 h at 37 °C. Supernatants were carefully removed, and 150 μL of dimethylsulfoxide (DMSO) were added into each well. The absorbance was measured at 570 nm using the spectrophotometer (Thermo, multiskan FC, USA). Cells were treated in quadruplicate. The values are the mean ± SD of three independent experiments.

BChE = target: T3, BChE (Homo sapiens, UniProt P06276); assay: Enzyme kinetic study with BChE (substrate BTC); type: biochemical; details: for Apparent Vmax: mean ± SD; for Kiu (inhibition constant for the uncompetitive part of inhibition) / Ki: mean ± SEM of three experiments; for Ki: read-out: Kic (inhibition constant for the competitive part of inhibition); for Mode of inhibition: substrate 90–904 μM, inhibitor 0.5–2 μM
T3 construct: BChE (from human serum, B4186); purchased Sigma-Aldrich B4186; host or cells: human serum
Protocol: Kinetic studies were performed in the same manner as the determination of ChE inhibition as previously described. The substrate (BTC) was used at various concentrations (90, 150, 226, 452, and 904 μM) for each test compound concentration and the enzymatic reaction was extended to four minutes before determining the absorption. The Vmax and Km values of the Michaelis–Menten kinetics were calculated by nonlinear regression from substrate–velocity curves using Graphpad Prism 6 (GraphPad Software, San Diego, CA, USA) (Table S1). […]

T3 sequence (P06276 29-602): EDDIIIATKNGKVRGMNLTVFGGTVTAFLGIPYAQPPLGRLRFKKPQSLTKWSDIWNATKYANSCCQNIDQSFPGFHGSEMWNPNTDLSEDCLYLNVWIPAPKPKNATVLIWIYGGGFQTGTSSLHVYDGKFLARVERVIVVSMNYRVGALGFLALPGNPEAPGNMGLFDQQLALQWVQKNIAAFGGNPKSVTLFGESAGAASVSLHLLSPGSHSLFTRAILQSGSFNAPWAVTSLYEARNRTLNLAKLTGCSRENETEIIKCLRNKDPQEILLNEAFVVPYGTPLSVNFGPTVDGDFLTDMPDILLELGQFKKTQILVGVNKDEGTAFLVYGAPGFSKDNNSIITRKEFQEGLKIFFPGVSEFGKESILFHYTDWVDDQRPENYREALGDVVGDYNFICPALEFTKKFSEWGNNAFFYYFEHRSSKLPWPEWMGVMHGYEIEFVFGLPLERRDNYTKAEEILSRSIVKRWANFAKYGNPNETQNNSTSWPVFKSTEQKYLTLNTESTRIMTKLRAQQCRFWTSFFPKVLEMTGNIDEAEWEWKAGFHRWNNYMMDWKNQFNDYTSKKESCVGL
T2 sequence (P06276 29-602): as above
T1 sequence (P22303 other isoform, or with tags, fused parts or gaps): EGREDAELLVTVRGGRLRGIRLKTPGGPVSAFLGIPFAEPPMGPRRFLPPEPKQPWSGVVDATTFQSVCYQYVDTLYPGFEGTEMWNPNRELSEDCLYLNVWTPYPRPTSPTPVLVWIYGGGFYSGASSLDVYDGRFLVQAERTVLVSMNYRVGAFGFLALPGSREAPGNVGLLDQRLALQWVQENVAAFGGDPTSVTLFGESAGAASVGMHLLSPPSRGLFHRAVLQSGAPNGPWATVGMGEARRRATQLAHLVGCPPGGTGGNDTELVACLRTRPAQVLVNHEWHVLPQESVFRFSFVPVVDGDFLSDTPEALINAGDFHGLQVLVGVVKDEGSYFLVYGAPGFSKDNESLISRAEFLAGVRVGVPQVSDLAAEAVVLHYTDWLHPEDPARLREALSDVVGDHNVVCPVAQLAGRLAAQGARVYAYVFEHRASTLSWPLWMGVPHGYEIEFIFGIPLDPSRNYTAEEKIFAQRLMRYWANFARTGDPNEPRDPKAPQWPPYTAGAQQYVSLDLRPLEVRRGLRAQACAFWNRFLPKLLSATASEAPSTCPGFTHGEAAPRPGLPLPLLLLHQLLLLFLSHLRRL

## COCCN(CC1CCCN(Cc2ccccc2)C1)S(=O)(=O)c1ccc2ccccc2c1 (centres unmarked) [Compound 1, N-((1-benzylpiperidin-3-yl)methyl)-N-(2-methoxyethyl)naphthalene-2-sulfonamide]
hAChE
  IC50: > 10000 nM

## CN(C)CCN(CC1CCCN(C2Cc3ccccc3C2)C1)C(=O)c1ccc2ccccc2c1 (centres unmarked) [Compound 2]
hAChE
  IC50: > 10000 nM

## O=C1NCCCc2c1c1ccccc1n2CCc1cccc(F)c1 [Compound 3]
hBChE
  IC50: 1.8 nM

## CCCCCCCNC(=O)Oc1ccc2c(c1)CN(C)C(c1cccs1)N2C (centres unmarked) [Compound 4]
hBChE
  IC50: 13 nM

## Cc1ccc(S(=O)(=O)Nc2nc3ccccc3nc2NCc2ccc(F)cc2)cc1C [Compound 5]
[1]
  AChE IR (inhibition ratio): −0.31 ± 0.5%
BChE (from human serum)
  BChE IR (inhibition ratio): 7.2 ± 0.6%

## Cc1nc(-c2cccc(F)c2)n(CCC(=O)NCCCc2ccccc2)c(=O)c1CCO [Compound 6]
[1]
  AChE IR (inhibition ratio): −1.5 ± 0.5%
BChE (from human serum)
  BChE IR (inhibition ratio): 8.5 ± 0.3%

## Cc1noc(C)c1CN(C)Cc1ccn(S(=O)(=O)c2ccccc2)c1 [Compound 7]
[1]
  AChE IR (inhibition ratio): 0.6 ± 0.6%
BChE (from human serum)
  BChE IR (inhibition ratio): 16.3 ± 1.1%

## COc1ccccc1CN1CCCC(CN(CCN(C)C)C(=O)C(=O)c2ccccc2)C1 (centres unmarked) [Compound 8]
SH-SY5Y cells
  Effect on cell viability (cytotoxicity): none of compounds was observed to affect cell viability
BChE (from human serum)
  BChE selective index (SI BChE, AChE IC50/BChE IC50): > 30
  IC50: 1100 ± 600 nM
BChE; inhibitor 0.5 µM
  Apparent Vmax: 0.34 ± 0.01 µM/min
BChE; inhibitor 1 µM
  Apparent Vmax: 0.27 ± 0.01 µM/min
BChE; inhibitor 1.5 µM
  Apparent Vmax: 0.25 ± 0.01 µM/min
BChE; inhibitor 2 µM
  Apparent Vmax: 0.24 ± 0.01 µM/min
BChE
  Kiu (inhibition constant for the uncompetitive part of inhibition): 3.61 ± 0.24 µM
  Ki: 880 ± 70 nM
  Mode of inhibition: mixed-type inhibitors

## COCCN1C(=O)N(CCc2ccccc2)C(=O)C12CCN(Cc1ccccc1)CC2 [Compound 9]
[1]
  AChE IR (inhibition ratio): 16.0 ± 1.5%
BChE (from human serum)
  BChE IR (inhibition ratio): 15.5 ± 1.6%

## O=C(CC1NC(N2CCN(Cc3ccccc3)CC2)=NC1=O)Nc1ccccc1 (centres unmarked) [Compound 10]
[1]
  AChE IR (inhibition ratio): 7.8 ± 0.7%
BChE (from human serum)
  BChE IR (inhibition ratio): 9.9 ± 1.0%

## O=C(NC1(C(F)(F)F)N=C(c2ccccc2)N(Cc2ccccc2)C1=O)c1ccco1 (centres unmarked) [Compound 11]
[1]
  AChE IR (inhibition ratio): −0.7 ± 0.7%
BChE (from human serum)
  BChE IR (inhibition ratio): 14.8 ± 1.3%

## CC1=NC2C(SC(=S)N2Cc2ccco2)C(=O)N1CC(=O)NCCc1ccccc1 (centres unmarked) [Compound 12]
[1]
  AChE IR (inhibition ratio): 1.1 ± 1.0%
BChE (from human serum)
  BChE IR (inhibition ratio): −1.8 ± 1.1%

## COc1cccc(N(CC(=O)N2CCN(Cc3ccccc3)CC2)S(=O)(=O)c2ccccc2)c1 [Compound 13]
[1]
  AChE IR (inhibition ratio): 11.3 ± 1.3%
BChE (from human serum)
  BChE IR (inhibition ratio): 20.1 ± 1.2%

## CCN(Cc1ccccc1)C(=O)CCc1nc2ccsc2c(=O)n1Cc1ccccc1 [Compound 14]
[1]
  AChE IR (inhibition ratio): 10.9 ± 0.8%
BChE (from human serum)
  BChE IR (inhibition ratio): 3.4 ± 0.4%

## O=C(O)C(c1c[nH]c2ccccc12)N1CCN(c2ccccn2)CC1 (centres unmarked) [Compound 15]
[1]
  AChE IR (inhibition ratio): 0.6 ± 1.0%
BChE (from human serum)
  BChE IR (inhibition ratio): −0.6 ± 0.5%

## COc1cccc(S(=O)(=O)NCC2CCCN(Cc3cc4ccccc4o3)C2)c1 (centres unmarked) [Compound 16]
[1]
  AChE IR (inhibition ratio): 38.7 ± 1.7%
BChE (from human serum)
  BChE IR (inhibition ratio): 26.4 ± 1.1%

## Cc1cc(C)cc(N(CC(=O)N2CCN(Cc3ccccc3)CC2)S(=O)(=O)c2ccccc2)c1 [Compound 17]
[1]
  AChE IR (inhibition ratio): 2.9 ± 0.5%
BChE (from human serum)
  BChE IR (inhibition ratio): 11.8 ± 1.2%

## COc1ccc(CCN2CCCC(O)(CNCc3cc(C)ccc3C)C2=O)cc1 (centres unmarked) [Compound 18]
SH-SY5Y cells
  Effect on cell viability (cytotoxicity): none of compounds was observed to affect cell viability
[1]
  AChE IR (inhibition ratio): 11.1% and 11.1 ± 1.5%
BChE (from human serum)
  BChE selective index (SI BChE, AChE IC50/BChE IC50): > 30
  BChE IR (inhibition ratio): 58.4% and 58.4 ± 0.9%
  IC50: 6300 ± 2000 nM
BChE; inhibitor 0.5 µM
  Apparent Vmax: 0.49 ± 0.01 µM/min
BChE; inhibitor 1 µM
  Apparent Vmax: 0.42 ± 0.02 µM/min
BChE; inhibitor 1.5 µM
  Apparent Vmax: 0.39 ± 0.01 µM/min
BChE; inhibitor 2 µM
  Apparent Vmax: 0.28 ± 0.02 µM/min
BChE
  Kiu (inhibition constant for the uncompetitive part of inhibition): 2.31 ± 0.32 µM
  Ki: 930 ± 130 nM
  Mode of inhibition: mixed-type inhibitors

## COC(=O)c1c(S(=O)(=O)Nc2ccc(C)cc2)sc2c1CCN(Cc1ccccc1O)C2 [Compound 19]
[1]
  IC50: 13800 ± 6000 nM
BChE (from human serum)
  BChE selective index (SI BChE, AChE IC50/BChE IC50): 6
  IC50: 2400 ± 1000 nM
